The structures appear in SMILES notation. Values joined by “and” are separate entries in the source; they are usually repeats but may differ in a detail not shown here. Equal values may be shown once.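 Each compound was tested at five concentrations against cells in 96-well plates for 48 hours. GI50 marks 50% less growth. TGI denotes the concentration required for complete inhibition of growth.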

What all share (test): NCI anticancer screen, dose series, 48 h
Experiment [1] relates to RXF 393 renal.
The test system of experiment [2] is SF-268 CNS.
Experiment [3] concerns SF-539 CNS.
The test system of experiment [4] is NCI-H460 lung.
The test system of experiment [5] is MDA-N.
The subject of experiment [6] is HCT-15 colon.
The test system of experiment [7] is HL-60(TB) leukemia.
Experiment [8] relates to DU-145 prostate.
Experiment [9] deals with UACC-62 melanoma.
Experiment [10] concerns MOLT-4 leukemia.

Regarding `C=CCOC1=C(OC(C)=O)C(C2COC(C)(C)O2)OC1=O` (stereo not drawn), the TGI in experiment [1] was 46.3 µM; in experiment [2], over 100 µM; in experiment [3], over 100 µM; in experiment [4] it was 61.4 µM; in [5], over 100 µM; in experiment [6], 29.8 µM. Besides, the TGI is 40.3 µM in experiment [7], over 100 µM in experiment [8], 68.2 µM in [9] and 43.8 µM in experiment [10].

For `Oc1ccccc1/C=N/N1C(=S)N(c2ccccc2)C(=Nc2ccccc2)C1=Nc1ccccc1`, the TGI was 18.1 µM in experiment [1]; 26.7 µM in experiment [2]; 17.9 µM in experiment [3]; 32.4 µM in experiment [4]; over 52.1 µM in experiment [5]; over 100 µM in experiment [6]. Also, the TGI in experiment [7] is over 86.1 µM; in [8] it was over 68.3 µM; in experiment [9], 29.3 µM; in experiment [10] it was over 89.5 µM.

For the compound `O=c1oc2ccc([N+](=O)[O-])cc2cc1-c1csc(-c2ccccc2)n1`, the TGI in [1], in experiment [2], in experiment [3], in experiment [4], in experiment [5] and in experiment [6] was over 100 µM throughout. Besides, the TGI in experiment [7], in [8], in experiment [9] and in [10] was over 100 µM throughout.

As to `O=[N+]([O-])C(=C(\Cl)NCCO)/C(Cl)=C(/Cl)Br`, the TGI in experiment [1] was 5.95 µM; in experiment [2], 4.56 µM; in experiment [3], 6.15 µM; in experiment [4] it was 10.8 µM; in experiment [5], 3.97 µM; in [6], 2.78 µM. Also, the TGI in experiment [7] was 2.48 µM; in [8] it was 20.6 µM; in experiment [9], 4.78 µM; in [10], 2.93 µM.

On to `CC1=NN(c2cccc(S(=O)(=O)O)c2)C2(C1)SCC(=O)N2c1nc2ccccc2s1` (stereo not drawn), for which the TGI in experiment [1], in experiment [2], in [3], in [4], in [5] and in experiment [6] was over 100 µM throughout. The TGI in experiment [7], in [8], in experiment [9] and in experiment [10] was over 100 µM each time.

Take `COC(=O)/C=C/[C@H]1[C@H](C)N1S(=O)(=O)c1ccc(C)cc1` (stereo partly drawn): the TGI in experiment [1], in [2], in experiment [3], in experiment [4], in experiment [5] and in experiment [6] was over 100 µM each time. For the same compound, the TGI in experiment [7], in experiment [8], in experiment [9] and in experiment [10] was over 100 µM each time.

For `COC1=C2C[C@](OC)(C#CC=CC#CC2O)CC1(C)C` (stereo partly drawn), the TGI in experiment [1], in experiment [2], in experiment [3], in [4], in experiment [5] and in experiment [6] was over 100 µM each time. Moreover, the TGI in [7], in experiment [8], in experiment [9] and in [10] was over 100 µM each time.

Turning to `CCOc1ccnc2c(OC)c(C)c3nc4ccccc4nc3c12`, the TGI in experiment [1], in experiment [2], in [3], in experiment [4], in experiment [5] and in [6] was over 100 µM each time. Further, the TGI in experiment [7], in [8] and in experiment [10] was over 100 µM throughout.

Turning to `CN(C)CCNc1nc2c(c(=O)n(C)c(=O)n2C)n1C`, the TGI in experiment [1], in experiment [2], in experiment [3], in experiment [4], in experiment [5] and in [6] was over 100 µM throughout. The TGI in experiment [7], in experiment [8], in experiment [9] and in experiment [10] was over 100 µM throughout.

With `CCOC(=O)C1=CN(Cc2ccccc2)C2ON=C(c3ccc(Cl)cc3)C2C1` (stereo not drawn), the TGI in experiment [1] was over 67.6 µM; in [2], over 66.3 µM; in experiment [3] it was over 68.2 µM; in experiment [4], over 65 µM; in [5] it was over 68.9 µM; in [6], over 47.2 µM. Moreover, the TGI is over 47.1 µM in [7], over 70 µM in [8], over 69.2 µM in experiment [9] and over 100 µM in [10].

Regarding `Cc1cccc2c1CC1(Cc3c(C)cccc3C1=O)C2=O`, the TGI in [1], in [2], in experiment [3], in experiment [4], in [5] and in experiment [6] was over 100 µM each time. In addition, the TGI in [7], in [8] and in [10] was over 100 µM throughout.

Turning to `NCCCCNCCCNC(=O)c1csc(-c2nc(CCN)sc2Cl)n1`, the TGI in experiment [1], in experiment [2], in [3], in experiment [4], in experiment [5] and in [6] was over 100 µM in each case. Also, the TGI in [7], in experiment [8], in experiment [9] and in experiment [10] was over 100 µM in each case.

In the case of `COC(=O)/C=C/c1cc(OC)c2c(c1)C(C(=O)OC)C(c1ccc(O)c(OC)c1)O2` (stereo not drawn), the TGI in experiment [1] was 9.76 µM and 7.8 µM and > 43.6 µM; in experiment [2], over 100 µM; in [3], 9.24 µM and 8.25 µM and 10.4 µM; in experiment [4], > 100 µM and > 47.9 µM and 27.8 µM; in [5], 29.1 µM; in experiment [6] it was > 100 µM and > 53.7 µM and 56.6 µM. The TGI was > 100 µM and 35.7 µM in experiment [8]; > 56.1 µM and 36.4 µM and 32.9 µM in experiment [9]; > 100 µM and 16.7 µM in [10]. Also, the GI50 in experiment [4] was 13.9 µM and 7.71 µM and 5.24 µM; in [5], 0.204 µM; in experiment [6] it was 2.74 µM and 1.52 µM and 0.629 µM; in [7], 1.14 µM and 1.81 µM and 0.325 µM; in [9], 2.42 µM and 3.37 µM and 1.57 µM; in experiment [10] it was 5.39 µM and 4.7 µM and 1.94 µM.

Turning to `ClC1(Cl)C2CCOC21n1cnc2ccccc21` (stereo not drawn), the TGI in [1], in experiment [2], in experiment [3], in [5], in [6] and in [7] was over 100 µM each time. Further, the TGI in experiment [8], in experiment [9] and in experiment [10] was over 100 µM in each case.

Turning to `FC(F)(F)c1ccc(N=NN2CCCC2)cc1`, the TGI in experiment [1], in [2], in [3], in experiment [4], in experiment [5] and in experiment [6] was over 100 µM each time. Besides, the TGI in experiment [7], in experiment [8], in [9] and in [10] was over 100 µM throughout.

Consider `CC1(C)CC(=O)C(/C=N/c2nc(-c3cccc([N+](=O)[O-])c3)cs2)=C(O)C1`, for which the TGI was 46.9 µM in [1]; 44.1 µM in experiment [2]; 45.6 µM in experiment [3]; 27.8 µM in [4]; 36.5 µM in [5]; 23.8 µM in experiment [6]. Further, the TGI in experiment [7] is over 100 µM; in experiment [8] it was over 100 µM; in experiment [9], 42.2 µM; in [10], over 100 µM.

Take `CCOC1=NC(C(F)(F)F)(C(F)(F)F)N=C(/N=C(/N)N(C)C(C(C)C)P(=O)(OC(C)C)OC(C)C)O1` (stereo not drawn): the TGI in experiment [1], in [2], in experiment [3], in experiment [4], in [5] and in experiment [6] was over 100 µM each time. Moreover, the TGI was 80.1 µM in experiment [7], over 100 µM in experiment [8], over 100 µM in experiment [9] and 51.4 µM in experiment [10].

For the compound `[B]C(=O)NC(CC(C)C)C(=O)NC1c2ccsc2C(=O)C1O` (stereo not drawn) (tested in a mixture with another compound), the TGI in experiment [1], in [2], in experiment [3], in experiment [4], in experiment [5] and in experiment [6] was over 100 µM each time. Moreover, the TGI in experiment [7], in experiment [8], in experiment [9] and in experiment [10] was over 100 µM each time.

`NC(=O)NC(=O)c1cccc(C(=O)NC(N)=O)n1`: the TGI in experiment [1], in experiment [2], in experiment [3], in experiment [4], in experiment [5] and in experiment [6] was over 100 µM throughout. The TGI in [7], in [8], in [9] and in experiment [10] was over 100 µM in each case.

`Cc1cn(C2CC(/[N+]([O-])=N\Nc3ccc([N+](=O)[O-])cc3)C(CO)O2)c(=O)[nH]c1=O` (stereo not drawn): the TGI in experiment [1], in [2], in [3], in experiment [4], in [5] and in experiment [6] was over 100 µM each time. The TGI in [7], in experiment [8], in experiment [9] and in [10] was over 100 µM each time.

Regarding `C/C(=N\Nc1nc2ccccc2[nH]1)c1ccc2ccccc2n1`, the TGI in [1] was 13.5 µM; in [2], 14.3 µM; in [3] it was 20.1 µM; in experiment [4] it was 10.4 µM; in [5], 14.8 µM; in experiment [6], 35.2 µM. The TGI in experiment [7] is 5.04 µM; in experiment [8], 5.88 µM; in experiment [9], 9.25 µM; in experiment [10], 2.64 µM.

Turning to `O=C(O)COc1cccc2ccccc(=O)c12`, the TGI in experiment [1], in experiment [2], in experiment [3], in experiment [4], in experiment [5] and in [6] was over 100 µM each time. Besides, the TGI in experiment [7], in experiment [8], in [9] and in [10] was over 100 µM throughout.

On to `CC(=O)Oc1ccc(C2SCc3nc4ccccc4n32)cc1` (stereo not drawn), for which the TGI in [1] was 77.3 µM; in experiment [2], 70.8 µM; in [3], over 100 µM; in experiment [4], over 100 µM; in experiment [5], over 63.8 µM; in experiment [6] it was over 100 µM. For the same compound, the TGI in experiment [7] was 37.8 µM; in experiment [8], over 100 µM; in experiment [9], over 100 µM; in experiment [10] it was 46.4 µM.

Turning to `Cc1csc(CP(=O)(OC(C)C)OC(C)C)n1`, the TGI in [1], in experiment [2], in experiment [3], in experiment [4], in experiment [5] and in [6] was over 100 µM in each case. In addition, the TGI in experiment [7], in experiment [8] and in experiment [10] was over 100 µM each time.

Turning to `CCOC(=O)CCNC(=O)c1cc(C)cc2c1Oc1c(cc(C)cc1C(=O)NCCC(=O)OCC)S2`, the TGI in experiment [1] was 58 µM; in experiment [2] it was over 100 µM; in [3], over 100 µM; in [5] it was over 100 µM; in [6], over 100 µM; in experiment [7], over 100 µM. Moreover, the TGI in experiment [8], in experiment [9] and in experiment [10] was over 100 µM in each case.

Consider `N#C[C@H](c1nc2ccccc2[nH]1)c1nc2ccccc2nc1Cl`, for which the TGI was over 100 µM in experiment [1]; over 100 µM in experiment [3]; over 53.8 µM in experiment [4]; over 62.9 µM in [5]; over 39.9 µM in [6]; 3.12 µM in experiment [7]. The TGI in experiment [8] was 4.09 µM; in experiment [9] it was over 38.8 µM; in [10], 16.8 µM.

As for `C[C@@H](Br)[C@@H]1CC[C@H]2c3[nH]c4ccccc4c3CCN2C1`, the TGI is 61.5 µM in [1]; over 100 µM in [2]; 70.1 µM in experiment [4]; 44 µM in experiment [5]; 48.1 µM in experiment [6]; 39.5 µM in experiment [7]. The TGI in experiment [8] is over 100 µM; in experiment [9], 33.5 µM; in experiment [10], 49.7 µM.

Values taken from PubChem BioAssay (NCI).
